# Measurements from US12286435B2, “Compound having benzo seven-membered ring structure, preparation method therefor, and use thereof” (BIONNA (BEIJING) MEDICAL TECHNOLOGY CO., LTD., priority 2019, dated 2025).
# pIC50, pKi: −log10 of the molar value. “And” between values parts separate entries of the source, which are not always exact repeats. Identical values can stand only once.
# Legend:
# [1] = biological target: BRD4 BD1 protein (Homo sapiens (Human), UniProt O60885); assay: Fluorescence polarization binding affinity (Ki) with BRD4 BD1 protein; settings: fluorescence polarization; Ki calculated from IC50
# [2] = biological target: BRD4 BD2 protein (Homo sapiens (Human), UniProt O60885); assay: Fluorescence polarization binding affinity (Ki) with BRD4 BD2 protein; settings: fluorescence polarization; Ki calculated from IC50
# [3] = test system: multiple myeloma MM.1S cell line; assay: Cell viability (CCK-8), multiple myeloma MM.1S; type: cell-based; settings: MM.1S cells, 4 days, CCK-8, 50% inhibition of cell growth
# Procedure: 3. Determination of cell viability of the compound
# The sample to be tested was dissolved with 100% dimethyl sulfoxide to prepare a 20 mM stock solution of the compound, which was diluted with 100% dimethyl sulfoxide to the highest compound concentration required for the experiment (2.5 mM).
# First, 145 uL of a complete cell culture medium was added to wells B1-G1 of a 96-well flat-bottomed tansparent cell culture plate, and 100 uL of the complete medium was added to wells B2-G12, respectively. Then, 5 uL of the 2.5 mM solution of the compound was added to wells B1-D1 and E1-G1 respectively, and then diluted gradiently by 3-folds to B12-D12 and E12-G12 in sequence. Finally, 50 uL of the solution of the cells to be tested was added to each well, with about 3000-5000 cells per well, and a total volume of 150 uL per well.
# In the experiment, in addition to the tested compound, two other control groups were set up: 1) a control group adding the cells and the complete medium, but without adding the compound; 2) a control group adding the complete medium only, without adding the cells and the compound. The 96-well plate was placed in a 37° C. cell culture incubator containing 5% carbon dioxide for 4 days, added with 15 uL of a CCK-8 reagent per well, and then incubated at 37° C. for 2-4 hours. The 96-well plate was read on a TECAN microplate reader, and the absorbance value at 450 nm wavelength was taken.
# The effect of different concentrations of the compound on cell viability was calculated by the following equation: [absorption value of the experimental group−absorption value of pure cell culture medium without the cells or the compound]/[absorption value of the control group with the tumor cells but no testing compound−absorption value of pure cell culture medium without the cell or the compound]×100%.
# The above data were precessed by software, and the IC50 value was the concentration of the compound corresponding to the 50% inhibition rate of cell growth.
# Based on the above test method of the compound on cell viability, a variety of […] cancer cell lines were tested, using multiple myeloma MM.1S, breast cancer MDA-MB-231 and leukemia MV4-11 cell lines as exemples. Using this test method, the IC50 values of partial compounds in the examples of the present invention measured in multiple myeloma MM.1S, breast cancer MDA-MB-231 cell lines and leukemia MV4-11 cell lines were shown in Table 2.
SMILES,pKi [1],pKi [2],"pIC50 ([3]; Homo sapiens, MM1.S, 96 h)",pIC50 [3]
"Cc1cc(NC2CCn3nnc(C)c3-c3ccc(-c4cnn(C)c4)cc32)n(C)n1 (stereo not shown) [BE114, N-(1,3-dimethyl-1H-pyrazol-5-yl)-1-methyl-9-(1-methyl-1H-pyrazol-4-yl)-6,7-dihydro-5H-benzo[c][1,2, 3]triazolo[1,5-a]azepin-7-amine]",7.34,8.15,6.11,
"Cc1nnn2c1-c1ccc(-c3cnn(C)c3)cc1C(Nc1cccc(C#N)c1)CC2 (stereo not shown) [LC07, 3-((1-methyl-9-(1-methyl-1H-pyrazol-4-yl)-6,7-dihydro-5H-benzo[c][1,2,3]triazolo[1,5-a]azepin-7-yl)amino)benzonitrile]",6.87,8.08 and 7.73,6.78,
"COc1ccc2c(c1)C(Nc1ccc(C)cc1)CCc1onc(C)c1-2 (stereo not shown) [BB188, 8-methoxy-1-methyl-N-(p-tolyl)-5,6-dihydro-4H-benzo[6,7]cyclohepta[1,2-d]isoxazol-6-amine]",7.03,7.38,6.09,
"Cc1nnn2c1-c1ccc(-c3cccc4[nH]cnc34)cc1C(Nc1ccc(Cl)cc1)CC2 (stereo not shown) [RB42, 9-(1H-benzo[d]imidazol-4-yl)-N-(4-chlorophenyl)-1-methyl-6,7-dihydro-5H-benzo[c][1,2,3]triazolo[1,5-a]azepin-7-amine]",7.28,7.59,6.49,
"Cc1nnn2c1-c1ccc(-c3cnn(C)c3)cc1C(Nc1ccc(C(N)=O)cc1)CC2 (stereo not shown) [LB32, 4-((1-methyl-9-(1-methyl-1H-pyrazol-4-yl)-6,7-dihydro-5H-benzo[c][1,2,3]triazolo[1,5-a]azepin-7-yl)amino)benzamide]",6.63,7.36,6.22,
"Cc1nnn2c1-c1ccc(-c3cnn(C)c3)cc1C(Nc1ccc(N(C)C)cc1)CC2 (stereo not shown) [LB17, N^1,N^1-dimethyl-N^4-(1-methyl-9-(1-methyl-1H-pyrazol-4-yl)-6,7-dihydro-5H-benzo[c][1,2,3]triazolo[1,5-a]azepin-7-yl)benzene-1,4-diamine]",6.63,7.36,6.93,
"Cc1nnn2c1-c1ccc(-c3cnn(C)c3)cc1C(Nc1cccc3cccnc13)CC2 (stereo not shown) [LB91, 1-methyl-9-(1-methyl-1H-pyrazol-4-yl)-N-(quinolin-8-yl)-6,7-dihydro-5H-benzo[c][1,2,3]triazolo[1,5-a]azepin-7-amine]",7.09,7.94,7.87,
"CC(=O)N1CC=C(c2ccc3c(c2)C(Nc2ccc(Cl)cc2)CCn2nnc(C)c2-3)CC1 (stereo not shown) [LD19, 1-(4-(7-((4-chlorophenyl)amino)-1-methyl-6,7-dihydro-5H-benzo[c][1,2,3]triazolo[1,5-a]azepin-9-yl)-3,6-dihydropyridin-1(2H)-yl)ethan-1-one]",7.41,8.01,> 9.00,
"Cc1nnn2c1-c1ccc(-c3cnn(C)c3)cc1C(Nc1ccc(O)cc1)CC2 (stereo not shown) [LB143, 4-((1-methyl-9-(1-methyl-1H-pyrazol-4-yl)-6,7-dihydro-5H-benzo[c][1,2,3]triazolo[1,5-a]azepin-7-yl)amino)phenol]",7.11,8.02,6.93,
"Cc1nnn2c1-c1ccc(-c3cnn(C)c3)cc1C(Nc1ccc(C(=O)O)cc1)CC2 (stereo not shown) [LB20, 4-((1-methyl-9-(1-methyl-1H-pyrazol-4-yl)-6,7-dihydro-5H-benzo[c][1,2,3]triazolo[1,5-a]azepin-7-yl)amino)benzoic acid]",5.76,7.08,5.61,
"Cc1nnn2c1-c1ccc(-c3ccc(NC(=O)OC(C)(C)C)cc3)cc1C(Nc1ccc(Cl)cc1)CC2 (stereo not shown) [RA194, tert-butyl (4-(7-((4-chlorophenyl)amino)-1-methyl-6,7-dihydro-5H-benzo[c][1,2,3]triazolo[1,5-a]azepin-9-yl)phenyl)carbamate]",7.54,7.62,6.48,
"Cc1nnn2c1-c1ccc(C3=CCN(C(C)C)CC3)cc1C(Nc1cccc(Cl)c1)CC2 (stereo not shown) [BH32, N-(3-chlorophenyl)-9-(1-isopropyl-1,2,3,6-tetrahydropyridin-4-yl)-1-methyl-6,7-dihydro-5H-benzo[c][1,2,3]triazolo[1,5-a]azepin-7-amine 2,2,2-trifluoroacetate]",6.28,8.01,6.92,
"Cc1nnn2c1-c1ccc(-c3cnn(C)c3)cc1C(Nc1ccc(CC(=O)O)cc1)CC2 (stereo not shown) [LB36, 2-(4-((1-methyl-9-(1-methyl-1H-pyrazol-4-yl)-6,7-dihydro-5H-benzo[c][1,2,3]triazolo[1,5-a]azepin-7-yl)amino)phenyl)acetic acid]",7.01,7.37,6.39,
"Cc1nnn2c1-c1ccc(C3=CCNCC3)cc1C(Nc1cccc(Cl)c1)CC2 (stereo not shown) [LC79, N-(3-chlorophenyl)-1-methyl-9-(1,2,3,6-tetrahydropyridin-4-yl)-6,7-dihydro-5H-benzo[c][1,2,3]triazolo[1,5-a]azepin-7-amine 2,2,2-trifluoroacetate]",6.19,7.47,6.03,
"Cc1nnn2c1-c1ccc(-c3cnn(C)c3)cc1C(Oc1ccc(Cl)cc1)CC2 (stereo not shown) [BE128, 7-(4-chlorophenoxy)-1-methyl-9-(1-methyl-1H-pyrazol-4-yl)-6,7-dihydro-5H-benzo[c][1,2,3]triazolo[1,5-a]azepine]",6.75,7.77,6.16,
CNC(=O)c1cccc(NC2CCn3nnc(C)c3-c3ccc(-c4cnn(C)c4)cc32)c1 (stereo not shown) [LB181],6.88,7.84,6.78,
"Cc1nnn2c1-c1ccc(-c3cnn(C)c3)cc1C(Nc1cccc3[nH]ccc13)CC2 (stereo not shown) [LB114, N-(1H-indo1-4-yl)-1-methyl-9-(1-methyl-1H-pyrazol-4-yl)-6,7-dihydro-5H-benzo[c][1,2,3]triazolo[1,5-a]azepin-7-amine]",7.34,8.06,8.92,
"COC(=O)Cc1cccc(NC2CCn3nnc(C)c3-c3ccc(-c4cnn(C)c4)cc32)c1 (stereo not shown) [LB63, methyl 2-(3-((1-methyl-9-(1-methyl-1H-pyrazol-4-yl)-6,7-dihydro-5H-benzo[c][1,2,3]triazolo[1,5-a]azepin-7-yl)amino)phenyl)acetate]",7.11,7.85,6.80,
"Cc1nnn2c1-c1ccc(-c3cnn(C)c3)cc1C(Nc1ccc3cccnc3c1)CC2 (stereo not shown) [LB89, 1-methyl-9-(1-methyl-1H-pyrazol-4-yl)-N-(quinolin-7-yl)-6,7-dihydro-5H-benzo[c][1,2,3]triazolo[1,5-a] azepin-7-amine]",6.37,7.30,6.84,
"Cc1nnn2c1-c1ccc(-c3cnn(C)c3)cc1C(Nc1cccc(CC#N)c1)CC2 (stereo not shown) [LC20, 2-(3-((1-methyl-9-(1-methyl-1H-pyrazol-4-yl)-6,7-dihydro-5H-benzo[c][1,2,3]triazolo[1,5-a]azepin-7-yl)amino)phenyl)acetonitrile]",7.22,7.82,7.60,
"Cc1nnn2c1-c1ccc(-c3cnn(C)c3)cc1C(Nc1cccc(O)c1)CC2 (stereo not shown) [LB171, 3-((1-methyl-9-(1-methyl-1H-pyrazol-4-yl)-6,7-dihydro-5H-benzo[c][1,2,3]triazolo[1,5-a]azepin-7-yl)amino)phenol]",7.58,8.15,7.64,7.68
"Cc1nnn2c1-c1ccc(-c3cnn(C)c3)cc1C(Nc1cccc(OCCO)c1)CC2 (stereo not shown) [LB77, 2-(3-((1-methyl-9-(1-methyl-1H-pyrazol-4-yl)-6,7-dihydro-5H-benzo[c][1,2,3]triazolo[1,5-a]azepin-7-yl)amino)phenoxy)ethanol]",7.00,8.22,7.14,
"Cc1nnn2c1-c1ccc(-c3cnn(C)c3)cc1C(Nc1ccc(F)cc1F)CC2 (stereo not shown) [LC01, N-(2,4-difluorophenyl)-1-methyl-9-(1-methyl-1H-pyrazol-4-yl)-6,7-dihydro-5H-benzo[c][1,2,3]triazolo[1,5-a]azepin-7-amine]",7.25,7.55 and 8.04,7.31,
"Cc1nnn2c1-c1ccc(-c3cnn(C)c3)cc1C(Nc1ccc(Cl)cc1)CC2C (stereo not shown) [BE25, N-(4-chlorophenyl)-1,5-dimethyl-9-(1-methyl-1H-pyrazol-4-yl)-6,7-dihydro-5H-benzo[c][1,2,3]triazolo[1,5-a]azepin-7-amine]",7.68,8.03,8.46,
